From US8809338B2, “1,2,3-triazole-based peptidomimetic integrin inhibitors for the diagnosis and therapy of tumors” (Universita' Degli Studi di Firenze, priority 2010, dated 2014)
“Also recorded” adds a separate entry of the source.

Legend:
αvβ3 integrin = target: T1, αvβ3 integrin (Homo sapiens, UniProt P05106+P06756); assay: Solid-phase receptor binding assay, [125I]-Echistatin competition, αvβ3; conditions: for IC50: αvβ3 purified from human placenta, competition with [125I]-Echistatin
T1 construct: purified from human placenta; from tissue; host or cells: human placenta
Protocol: Solid-phase receptor binding assay. [^125I]-Echistatin, labelled according to the lactoperoxidase method and with a specific activity of 2000 Ci/mmol, and αvβ3 and αvβ5 integrins, purified from human placenta, are used for the in vitro assays. Purified αvβ3 and αvβ5 receptors are respectively diluted to 500 ng/mL and 1000 ng/mL in 20 mM Tris (pH 7.4), 150 mM NaCl, 2 mM CaCl2, 1 mM MgCl2, 1 mM MnCl2. An amount of the diluted receptor solutions (100 μL/well) is added to a 96-well microtiter plate (Optiplate-96 HB, PerkinElmer Life Sciences, Boston, Mass.) and incubated at 4° C. for 16 h. Then, the plate is washed once with an incubation buffer [20 mM Tris (pH 7.4), 150 mM NaCl, 2 mM CaCl2, 1 mM MgCl2, 1 mM MnCl2, 1% BSA] and incubated for additional 2 h at room temperature. The plate is treated twice with the same buffer, and competitive binding experiments are carried out with a fixed concentration of [^125I]-Echistatin (0.05 nM and 0.1 nM for αvβ3 and αvβ5 respectively) and concentrations of the test compounds ranging from 0.01 nM to 100 μM. All the assays are carried out in triplicate at a final volume of 0.2 mL, each containing the following species: 0.05 mL of [^125I]-Echistatina, 0.04 mL of the test compounds, and 0.11 mL of the incubation buffer. Non-specific binding is defined as the [^125I]-Echistatin bound in the presence of excess (1 μM) of non-labelled echistatin. After an incubation period of 3 h at room temperature, the plate is washed three times with the incubation buffer, then the radioactivity is measured in a plate counter Top-Count NXT (Perkin Elmer Life Sciences, Boston, Mass.) using 200 μL/well of scintillating liquid MicroScint-40 (PerkinElmer Life Sciences, Boston, Mass.). Data analysis. IC50 values are determined by fitting the binding inhibition data with a non-linear regression, using the GraphPad Prism 4.0 software package (GraphPad Prism, San Diego, Calif.). […] The inhibition curves better fitted according to a two-sites model (p<0.05) rather than a single-site model are considered to be significant.

αvβ5 integrin = target: T2, αvβ5 integrin (Homo sapiens, UniProt P06756+P18084); assay: Solid-phase receptor binding assay, [125I]-Echistatin competition, αvβ5; conditions: αvβ5 purified from human placenta; competition with [125I]-Echistatin
T2 construct: purified from human placenta; from tissue; host or cells: human placenta
Protocol: Solid-phase receptor binding assay. [^125I]-Echistatin, labelled according to the lactoperoxidase method and with a specific activity of 2000 Ci/mmol, and αvβ3 and αvβ5 integrins, purified from human placenta, are used for the in vitro assays. Purified αvβ3 and αvβ5 receptors are respectively diluted to 500 ng/mL and 1000 ng/mL in 20 mM Tris (pH 7.4), 150 mM NaCl, 2 mM CaCl2, 1 mM MgCl2, 1 mM MnCl2. An amount of the diluted receptor solutions (100 μL/well) is added to a 96-well microtiter plate (Optiplate-96 HB, PerkinElmer Life Sciences, Boston, Mass.) and incubated at 4° C. for 16 h. Then, the plate is washed once with an incubation buffer [20 mM Tris (pH 7.4), 150 mM NaCl, 2 mM CaCl2, 1 mM MgCl2, 1 mM MnCl2, 1% BSA] and incubated for additional 2 h at room temperature. […] After an incubation period of 3 h at room temperature, the plate is washed three times with the incubation buffer, then the radioactivity is measured in a plate counter Top-Count NXT (Perkin Elmer Life Sciences, Boston, Mass.) using 200 μL/well of scintillating liquid MicroScint-40 (PerkinElmer Life Sciences, Boston, Mass.). […] IC50 values are determined by fitting the binding inhibition data with a non-linear regression, using the GraphPad Prism 4.0 software package (GraphPad Prism, San Diego, Calif.). […]

A375M melanoma cell line = assay: Melanoma cell line assay, inhibition of cell adhesion to RGD-containing substrates; format: cell-based, human; conditions: compounds at 10, 1.0 and 0.1 μM, FIG. 3
Protocol: A series of experiments carried out using the flux cytometry technique and specific monoclonal antibodies, allowed for the setup of particular human melanoma cells characterized by an over-expression of integrin receptors. Such cells have been used to test the capability of selected compounds of formula (I) at 10, 1.0 and 0.1 μM concentrations, of inhibiting the binding between these cells and suitable substrates containing the RGD sequence, such as vitronectin, fibronectin, and osteopontin (FIG. 3).
Melanoma cell line assay. The selected cell line for this study is the A375M, which are in vivo selected melanoma cells starting from A375P cells isolated from a amelanotic human melanoma. The expression of the RGD-dependent integrinic pattern, comprising αvβ3, αvβ5, α5β1 integrins, of A375M cells is determined by the flux cytometry technique (FACScanto, Becton & Dickinson) and by RT-PCR. With aim to evaluate the ability of compounds of formula (I) of binding to integrins exposed to the melanoma cells surface, the inhibition of adhesion of such cells to vitronectin, fibronectin and osteopontin are measured. A spectrophotometric evaluation of the cellular content of the culture plates used in the adhesion tests allows for the precision and the correlation of the results obtained in different experiments.

IC50 (αvβ3 integrin) [nM] | Structure (SMILES) | also measured
13 | N=C(N)NCCCc1cn(CC(=O)NCCC(=O)O)nn1 [Compound 55] | 
2100 | N=C(N)NCCCc1cn(CC(=O)N[C@@H](CC(=O)O)c2ccc(O)cc2)nn1 [Compound 54] | 
16.4 | N=C(N)NCCCc1cn(CC(=O)N[C@@H](CC(=O)O)c2ccccc2)nn1 [Compound 38] | IC50 (αvβ5 integrin): 1020 nM
215 | N=C(N)NCCCc1cn(CC(=O)NC(CC(=O)O)c2ccc(F)cc2)nn1 (centres unmarked) [Compound 48] | IC50 (αvβ5 integrin): 9900 nM; inhibition of adhesion of melanoma cells to fibronectin (A375M melanoma cell line): minor effect; inhibition of binding of melanoma cells to osteopontin (A375M melanoma cell line): significantly inhibits; also recorded: minor effect; inhibition of binding of melanoma cells to vitronectin (A375M melanoma cell line): significantly inhibits
101 | N=C(N)NCCCc1cn(CC(=O)NC(CC(=O)O)c2ccc(F)cc2)nn1 (centres unmarked) [Compound 49] | 
200 | O=C(O)C[C@H](NC(=O)Cn1cc(CCCNCc2nc3ccccc3[nH]2)nn1)c1ccc(F)cc1 [Compound 57] | 
308 | N=C(NCCCc1cn(CC(=O)N[C@@H](CC(=O)O)c2ccccc2)nn1)NCCc1ccc(O)cc1 [Compound 59] | 
 | Cc1ccc(S(=O)(=O)N(CCn2cc(CCNC(=N)N)nn2)CC(=O)O)cc1 [Compound 52] | inhibition at 1 µM (αvβ3 integrin; 1 μM concentration): 54%; inhibition at 10 µM (αvβ3 integrin; 10 μM concentration): 77%
